Laboratory results as given in article PMC3961306, “Comparison of the Cancer Gene Targeting and Biochemical Selectivities of All Targeted Kinase Inhibitors Approved for Clinical Use” (PLoS ONE, 2014).
Like-named read-outs stand apart in the source and are kept apart here. Blank lines part the entries; values can stand above or below the molecule they belong to.

Columns and labels:
[1] = system: forty-four human cancer cell lines; test: Cell proliferation assay (ATPlite, 72 hours) in the 44 cell line Oncolines panel; assay type: cell-based; conditions: Homo sapiens
[2] = system: mutant versus wild-type cell lines of the 44 cell line panel; test: Anova analysis of cell panel IC50s against cancer gene changes; standardized mean difference (targetedness)
[3] = 769-P, cell line 769-P, read-out: cell panel IC50, 769-P
[4] = 786-0, cell line 786-0, read-out: cell panel IC50, 786-0
[5] = A 172, read-out: cell panel IC50, A-172, cell line A-172
[6] = A204, cell line A-204, read-out: cell panel IC50, A-204
[7] = A498, read-out: cell panel IC50, A-498, cell line A-498
[8] = A549, read-out: cell panel IC50, A-549, cell line A-549
[9] = A-375, cell line A375, read-out: cell panel IC50, A375
[10] = A-427, read-out: cell panel IC50, A-427, cell line A-427
[11] = ACHN, cell line ACHN, read-out: cell panel IC50, ACHN
[12] = AN3-CA, cell line AN3 CA, read-out: cell panel IC50, AN3 CA
[13] = AU565, read-out: cell panel IC50, AU-565, cell line AU-565
[14] = BT-20, cell line BT-20, read-out: cell panel IC50, BT-20
[15] = BT-549, read-out: cell panel IC50, BT-549, cell line BT-549
[16] = BXPC-3, cell line BxPC-3, read-out: cell panel IC50, BxPC-3
[17] = C-33-A, cell line C-33 A, read-out: cell panel IC50, C-33 A
[18] = CAL-27, cell line CAL 27, read-out: cell panel IC50, CAL 27
[19] = CCRF-CEM, cell line CCRF-CEM, read-out: cell panel IC50, CCRF-CEM
[20] = DLD-1, cell line DLD-1, read-out: cell panel IC50, DLD-1
[21] = FaDu, cell line FaDu, read-out: cell panel IC50, FaDu
[22] = HCT-15, cell line HCT-15, read-out: cell panel IC50, HCT-15
[23] = HCT-116, read-out: cell panel IC50, HCT-116, cell line HCT-116
[24] = Hs-578T, cell line Hs 578T, read-out: cell panel IC50, Hs 578T
[25] = Jurkat E6.1, cell line Jurkat E6.1, read-out: cell panel IC50, Jurkat E6.1
[26] = K562, read-out: cell panel IC50, K-562, cell line K-562
[27] = LS174T, read-out: cell panel IC50, LS 174T, cell line LS 174T
[28] = LoVo, cell line LoVo, read-out: cell panel IC50, LoVo
[29] = MG-63, cell line MG-63, read-out: cell panel IC50, MG-63
[30] = MOLT-4, cell line MOLT-4, read-out: cell panel IC50, MOLT-4
[31] = MeWo, cell line MeWo, read-out: cell panel IC50, MeWo
[32] = NCI-H82, cell line NCI-H82, read-out: cell panel IC50, NCI-H82
[33] = NCI-H460, cell line NCI-H460, read-out: cell panel IC50, NCI-H460
[34] = OVCAR-3, cell line OVCAR-3, read-out: cell panel IC50, OVCAR-3
[35] = RPMI-7951, cell line RPMI-7951, read-out: cell panel IC50, RPMI-7951
[36] = SHP77, cell line SHP-77, read-out: cell panel IC50, SHP-77
[37] = SK-N-AS, cell line SK-N-AS, read-out: cell panel IC50, SK-N-AS
[38] = SW48, cell line SW48, read-out: cell panel IC50, SW48
[39] = SW480, cell line SW480, read-out: cell panel IC50, SW480
[40] = SW-620, cell line SW620, read-out: cell panel IC50, SW620
[41] = U2OS, cell line U-2 OS, read-out: cell panel IC50, U-2 OS
[42] = U-87 MG, 72 h, U-87 MG cell line, ATPlite, 72 hours, read-out: IC50 in cell proliferation assay (table S5 cellpanel data)
[43] = cell line J82, read-out: cell panel IC50, J82
[44] = cell line PA-1, read-out: cell panel IC50, PA-1
[45] = cell line SJCRH30, read-out: cell panel IC50, SJCRH30
[46] = cell line SR, read-out: cell panel IC50, SR
[47] = 4-4 cell, read-out: cell panel IC50, PA-1
[48] = A498, read-out: cell panel IC50, A-498
[49] = A-375, read-out: cell panel IC50, A375
[50] = HCT-116, read-out: cell panel IC50, HCT-116
[51] = SHP77, read-out: cell panel IC50, SHP-77

- IC50 [1, 3]: 0.01 µM
- IC50 [1, 4]: 0.017 µM
- IC50 [1, 5]: 0.00325 µM
- IC50 [1, 6]: 0.003 µM
- IC50 [1, 7]: 0.013 µM
- IC50 [1, 8]: 0.00214 µM
- IC50 [1, 9]: 0.00552 µM
- IC50 [1, 10]: 0.0035 µM
- IC50 [1, 11]: 0.021 µM
- IC50 [1, 12]: 0.000902 µM
- IC50 [1, 13]: 0.00222 µM
- IC50 [1, 14]: 0.009 µM
- IC50 [1, 15]: 0.00285 µM
- IC50 [1, 16]: 0.00335 µM
- IC50 [1, 17]: 0.00285 µM
- IC50 [1, 18]: 0.00164 µM
- IC50 [1, 19]: 0.00645 µM
- IC50 [1, 20]: 0.023 µM
- IC50 [1, 21]: 0.00118 µM
- IC50 [1, 22]: 0.058 µM
- IC50 [1, 23]: 0.002 µM
- IC50 [1, 24]: 0.00213 µM
- IC50 [1, 25]: 0.002 µM
- IC50 [1, 26]: 0.00268 µM
- IC50 [1, 27]: 0.00222 µM
- IC50 [1, 28]: 0.008 µM
- IC50 [1, 29]: 0.00108 µM
- IC50 [1, 30]: 0.00174 µM
- IC50 [1, 31]: 0.00263 µM
- IC50 [1, 32]: 0.00137 µM
- IC50 [1, 33]: 0.00557 µM
- IC50 [1, 34]: 0.004 µM
- IC50 [1, 35]: 0.0019 µM
- IC50 [1, 36]: 0.138 µM
- IC50 [1, 37]: 0.00337 µM
- IC50 [1, 38]: 0.00339 µM
- IC50 [1, 39]: 0.00334 µM
- IC50 [1, 40]: 0.00225 µM
- IC50 [1, 41]: 0.00741 µM
- IC50 [1, 42]: 0.011 µM
- IC50 [1, 43]: 0.015 µM
- IC50 [1, 44]: 0.000943 µM
- IC50 [1, 45]: 0.00245 µM
- IC50 [1, 46]: 0.00217 µM
SMILES: CC(=O)O[C@@]12CO[C@@H]1C[C@H](O)[C@@]1(C)C(=O)[C@H](O)C3=C(C)[C@@H](OC(=O)[C@H](O)[C@@H](NC(=O)OC(C)(C)C)c4ccccc4)C[C@@](O)([C@@H](OC(=O)c4ccccc4)[C@H]21)C3(C)C [docetaxel]

SMILES: Cc1ccc(NC(=O)c2ccc(CN3CCN(C)CC3)cc2)cc1Nc1nccc(-c2cccnc2)n1 [imatinib]
- targetedness (standardized logIC50 difference) ([2]; ABL1 oncogene targeting, Figure 5D): -9.84

- IC50 [1, 3]: 4.74 µM
- IC50 [1, 4]: 2.21 µM
- IC50 [1, 5]: 0.987 µM
- IC50 [1, 6]: 1.42 µM
- IC50 [1, 7]: 1.7 µM
- IC50 [1, 8]: 1.18 µM
- IC50 [1, 9]: 3.66 µM
- IC50 [1, 10]: 1.82 µM
- IC50 [1, 11]: 2.45 µM
- IC50 [1, 12]: 7.34 µM
- IC50 [1, 13]: 1.01 µM
- IC50 [1, 14]: 6.34 µM
- IC50 [1, 15]: 1.85 µM
- IC50 [1, 16]: 5.18 µM
- IC50 [1, 17]: 4.61 µM
- IC50 [1, 18]: 4.07 µM
- IC50 [1, 19]: 15.1 µM
- IC50 [1, 20]: 1.03 µM
- IC50 [1, 21]: 1.13 µM
- IC50 [1, 22]: 1.84 µM
- IC50 [1, 23]: 1.27 µM
- IC50 [1, 24]: 7.95 µM
- IC50 [1, 25]: 3.34 µM
- IC50 [1, 26]: 5.53 µM
- IC50 [1, 27]: 4.8 µM
- IC50 [1, 28]: 3.2 µM
- IC50 [1, 29]: 3.03 µM
- IC50 [1, 30]: 2.07 µM
- IC50 [1, 31]: 4.28 µM
- IC50 [1, 32]: 1.92 µM
- IC50 [1, 33]: 1.59 µM
- IC50 [1, 34]: 3.46 µM
- IC50 [1, 35]: 1.22 µM
- IC50 [1, 36]: 22.8 µM
- IC50 [1, 37]: 2.58 µM
- IC50 [1, 38]: 1.86 µM
- IC50 [1, 39]: 1.73 µM
- IC50 [1, 40]: 4.2 µM
- IC50 [1, 41]: 2.46 µM
- IC50 [1, 42]: 2.46 µM
- IC50 [1, 43]: > 31.6 µM
- IC50 [1, 44]: 0.814 µM
- IC50 [1, 45]: 7.21 µM
- IC50 [1, 46]: 0.546 µM
SMILES: O=c1[nH]cc(F)c(=O)[nH]1 [5-fluorouracil]

SMILES: CNC(=O)c1ccccc1Sc1ccc2c(/C=C/c3ccccn3)n[nH]c2c1 [axitinib]
- IC50 [1, 47]: 1.29 µM
- IC50 [1, 48]: 3.21 µM
- IC50 [1, 49]: 5.65 µM
- IC50 [1, 50]: 2.29 µM
- IC50 [1, 51]: 5.57 µM

SMILES: CNC(=O)c1cc(Oc2ccc(NC(=O)Nc3ccc(Cl)c(C(F)(F)F)c3)cc2)ccn1 [sorafenib]
- IC50 ([1]; 4-4 cell, read-out: cell panel IC50, J82): 26.5 µM
- IC50 [1, 47]: 11.7 µM
- IC50 ([1]; 4-4 cell, read-out: cell panel IC50, SJCRH30): 12.1 µM
- IC50 ([1]; 4-4 cell, read-out: cell panel IC50, SR): 11.8 µM
- IC50 ([1]; 769-P, read-out: cell panel IC50, 769-P): 12.7 µM
- IC50 ([1]; 786-0, read-out: cell panel IC50, 786-0): 11.7 µM
- IC50 ([1]; A 172, read-out: cell panel IC50, A-172): 22.6 µM
- IC50 ([1]; A204, read-out: cell panel IC50, A-204): 1.62 µM
- IC50 [1, 48]: 18.7 µM
- IC50 ([1]; A549, read-out: cell panel IC50, A-549): 21.2 µM
- IC50 [1, 49]: 28.7 µM
- IC50 ([1]; A-427, read-out: cell panel IC50, A-427): 7.78 µM
- IC50 ([1]; ACHN, read-out: cell panel IC50, ACHN): 17.5 µM
- IC50 ([1]; AN3-CA, read-out: cell panel IC50, AN3 CA): 9.97 µM
- IC50 ([1]; AU565, read-out: cell panel IC50, AU-565): 10.4 µM
- IC50 ([1]; BT-20, read-out: cell panel IC50, BT-20): 25.1 µM
- IC50 ([1]; BT-549, read-out: cell panel IC50, BT-549): 18.2 µM
- IC50 ([1]; BXPC-3, read-out: cell panel IC50, BxPC-3): 11.1 µM
- IC50 ([1]; C-33-A, read-out: cell panel IC50, C-33 A): 15.9 µM
- IC50 ([1]; CAL-27, read-out: cell panel IC50, CAL 27): 14 µM
- IC50 ([1]; CCRF-CEM, read-out: cell panel IC50, CCRF-CEM): 13 µM
- IC50 ([1]; DLD-1, read-out: cell panel IC50, DLD-1): 10.5 µM
- IC50 ([1]; FaDu, read-out: cell panel IC50, FaDu): 16.2 µM
- IC50 ([1]; HCT-15, read-out: cell panel IC50, HCT-15): 9.9 µM
- IC50 [1, 50]: 11.9 µM
- IC50 ([1]; Hs-578T, read-out: cell panel IC50, Hs 578T): 21.6 µM
- IC50 ([1]; Jurkat E6.1, read-out: cell panel IC50, Jurkat E6.1): 7.94 µM
- IC50 ([1]; K562, read-out: cell panel IC50, K-562): 9.46 µM
- IC50 ([1]; LS174T, read-out: cell panel IC50, LS 174T): 11.7 µM
- IC50 ([1]; LoVo, read-out: cell panel IC50, LoVo): 11.3 µM
- IC50 ([1]; MG-63, read-out: cell panel IC50, MG-63): 27.4 µM
- IC50 ([1]; MOLT-4, read-out: cell panel IC50, MOLT-4): 10.5 µM
- IC50 ([1]; MeWo, read-out: cell panel IC50, MeWo): 20.9 µM
- IC50 ([1]; NCI-H82, read-out: cell panel IC50, NCI-H82): 11.3 µM
- IC50 ([1]; NCI-H460, read-out: cell panel IC50, NCI-H460): 14.1 µM
- IC50 ([1]; OVCAR-3, read-out: cell panel IC50, OVCAR-3): > 31.6 µM
- IC50 ([1]; RPMI-7951, read-out: cell panel IC50, RPMI-7951): 20.4 µM
- IC50 [1, 51]: 13.6 µM
- IC50 ([1]; SK-N-AS, read-out: cell panel IC50, SK-N-AS): 28.9 µM
- IC50 ([1]; SW48, read-out: cell panel IC50, SW48): 8.3 µM
- IC50 ([1]; SW480, read-out: cell panel IC50, SW480): 5.33 µM
- IC50 ([1]; SW-620, read-out: cell panel IC50, SW620): 5.95 µM
- IC50 ([1]; U2OS, read-out: cell panel IC50, U-2 OS): 15.8 µM
- IC50 ([1]; U-87 MG, 72 h, read-out: IC50 in cell proliferation assay (table S5 cellpanel data)): 28.3 µM

SMILES: Cn1cnc2c(F)c(Nc3ccc(Br)cc3Cl)c(C(=O)NOCCO)cc21 [selumetinib]
- Potency shift in cell lines expressing mutant β-catenin (CTNNB1) versus wild-type ([2]; CTNNB1 mutant versus wild-type, average): more than tenfold
